Measurements published in US11229628B2, “TRPA1 and TRPV4 inhibitors and methods of using the same for organ-specific inflammation and itch” (Duke University, priority 2015, dated 2022).
Entries after “also recorded” stand apart in the source; their conditions may differ. Where a SMILES comes first, the peptide text is derived from it. [ ]: non-standard residue; d: D form.

Experiments:
[1] = system: primary mouse epidermal keratinocytes (1° MK); assay: UVB-evoked Ca++ signaling in primary mouse keratinocytes (fluo-4 imaging); type: cell-based; details: for UVB-evoked Ca++ signaling: fluo-4 ΔF/F0, GSK205 20 μM; for ET1-augmented UVB-evoked Ca++ signaling: UVB and ET1 co-exposure
Protocol: Ca++ imaging of 1° MK was conducted following routine procedures. For UVB stimulation, a customized device was built. The system comprised a printed circuit board for electrical interconnects and mechanical support and an ultraviolet light-emitting diode (UV LED).
The operating wavelength was 295 nm (FIG. 2A), with a full-width half-max of 12 nm. The optical power was 500 mW. The focal point was aimed at the plane of the upper surface of the quartz coverslip, which was used to minimize UV absorption along the optical path towards the cells (FIG. 2A-C). The optical intensity at the focal point was estimated to be 150 mW/mm^2.
(§1) Ca++ imaging of mouse 1° MK in response to chemical activation of TRPV4 was conducted after loading with 2 μM fura2-AM, following a ratiometric Ca2+ imaging protocol with 340/380 nm […] for dual excitation. Ratios of emissions were acquired at 0.5 Hz. ΔR/R0 was determined as the fraction of the increase of a given ratio over baseline ratio, divided by baseline ratio. For stimulation of cells with UVB, where fura-2 was not suitable because of the proximity of stimulation with 340/380 nm and 295 nm, 2 μM fluo4-AM was used instead. Ca++ imaging was carried out at 488 nm excitation, acquisition of emissions at 0.5 Hz, expressed as ΔF/F0. In the custom-built UV optical system, UV LEDs were capped with a ball lens, a transparent optical window in the shape of a hemispherical lens (FIG. 2B). The LED output optical beam focused at 15-20 mm from the lens, with a spot diameter of approximately 1.5˜2.0 mm (FIG. 2C). […] The thermal equilibration stage was set for physiological temperature.
To further dissect the underlying mechanisms involved, we built a customized device for specific and narrow-band UVB stimulation of primary mouse epidermal keratinocytes (1° MK) cultured in vitro (FIG. 6A-B and FIG. 2A-D). This allowed use of the Ca++ sensitive dye, fluo-4, and assessment of 1° MK's Ca++ dynamics following UVB exposure (FIG. 6B). The elicited Ca++ signal was obliterated by a UV-refracting glass coverslip, underscoring the strict dependence of the calcium response on UVB (FIG. 6C and FIG. 2A).

ET1 expression in 1° MK = assay: ET1 expression by UVB-exposed 1° MK (immunocytochemistry); type: cell-based, mouse; details: 295 nm UVB-LED, 24 hours
Protocol: 1° MK were exposed to UVB using the UV optical system (295 nm LED). 24 hours later the cells were fixed and fluorescently immunolabeled for ET1. Digital images were captured and subjected to morphometry.
Mouse keratinocytes were cultured on collagen coated quartz coverslips and then stimulated from the bottom using the previously mentioned UV optical system using the 295 nm LED. 24 hours later the cells were fixed in 4% formaldehyde in PBS for 20 minutes, permeabilized with 0.1% Triton X-100 in PBS for 10 minutes, washed, then blocked in 10% normal goat serum in PBS for 45 minutes. Coverslips were incubated overnight with primary antibody mouse anti-ET1 (1:200; Abcam), washed three times in PBS and incubated with secondary antibody for 2 hours at 25° C. Coverslips were washed three times in PBS, once with double-distilled H2O. Digital images were captured using a 40× immersion lens on the BX61 Olympus upright microscope. Morphometric analysis was conducted using ImageJ freeware with tailored regions-of-interest.
(§2) We tested whether UVB causes ET1 upregulation in a TRPV4-dependent manner. Given the exquisite wave-length dependence of ET1 expression in 1° MKs, we resorted to the UVB-LED device as for Ca++ imaging (FIG. 6A and FIG. 2A-D). […] Consistent with its effects on UVB-evoked Ca++ transients, PLC-inhibitor U73122 also dampened ET1 expression. […] This leads to TRPV4-dependent Ca++ signaling, which in turn amplifies ET1 signaling in a paracrine/autocrine fashion.

ET1 secretion by 1° MK = assay: ET1 secretion by non-stimulated 1° MK (ELISA of supernatant); type: cell-based, mouse
Protocol: FIG. 8: Central role for KC TRPV4 in UVB-evoked Ca^++ signaling and nocifensive behavior—ET1-related supplementary findings. (A) Augmentation of GSK101-evoked Ca^++ signaling by ET1. Shown are averaged Ca^++ measurements (fura-2) in response to 5 nM GSK101. […] (B) ET1 secretion by non-stimulated 1° MK depends on TRPV4 and PLC. Shown are relative ET1 concentrations (determined by ELISA, pg/mL; vehicle-treated and WT control normalized to 100) in supernatant of non-stimulated 1° MK. Note the clear dependence on TRPV4, as indicated by a 50% reduction in Trpv4^−/− 1° MK. […] In addition, PLC-inhibitor robustly affects ET1 secretion in WT and Trpv4^−/− 1° MK. (C) ET1 expression by UVB-exposed 1° MK depends on TRPV4 and PLC—immunocytochemistry. Shown is specific ET1 immunolabeling in 1° MK, exposed to UVB using the UVB-LEDs, as for Ca^++ imaging. Use of the UVB-LED device precluded application of a ET1 ELISA, only irradiated cells could be examined. […] (D) ET1 expression by UVB-exposed 1° MK depends on TRPV4 and PLC—quantification of immunocytochemistry.
as §2

TRPV4 [2] = target: T1, TRPV4 (Mus musculus, UniProt Q9EPK8); assay: GSK101-evoked Ca++ transient in 1° MK (fura-2); type: cell-based; details: 5 nM GSK101
T1 construct: Primary mouse keratinocytes were derived from back skin of newborn mice; endogenous in cells; host or cells: primary mouse epidermal keratinocytes (1° MK), wild type
Protocol: as §1, with “temperature. We confirmed the non-thermal nature of UVB stimulation using the customized 295 nm LED device in a dedicated experiment (FIG. 2D), thus confirming the specific modality of stimulation as UVB.” for “temperature.”
We obtained corroborating findings by chemically activating TRPV4 with GSK101, which can directly stimulate TRPV4 in WT 1° MK. […]

TRPV4 [3] = target: T1, TRPV4; assay: 4α-PDD-evoked Ca++ signaling in 1° MK with ET1 co-application; type: cell-based; details: fura-2, ET1 co-application
Protocol: FIG. 7: Central role for keratinocyte TRPV4 in UVB-evoked Ca++ signaling and nocifensive behavior—effects of ET1. (A) Effects of ET1 on UVB-evoked Ca++ signaling in 1° MKs. […] Panel (iii) illustrates the complete elimination of the ET1-augmented Ca++ transients when both subtypes of ET(R) are blocked. (B) 4α-PDD-evoked Ca++ signaling in 1° MKs—ET1-related findings. […] Quantifications are for n=3 mice/group. *** denotes statistically significant (p<0.001, t-test). (D) Nocifensive behavior in response to ET1 footpad injection depends on epidermal TRPV4. Bar diagram summarizes behavioral findings for Trpv4−/−vs. WT and for oil-treated vs. tam-treated iKO mice. […] Trpv4−/− and tam-treated iKO mice fail to respond; n≥7 mice/group, ** p<0.01, ANOVA.
Ca++ imaging of mouse 1° MK in response to chemical activation of TRPV4 was conducted after loading with 2 μM fura2-AM, following a ratiometric Ca2+ imaging protocol with 340/380 nm […] for dual excitation. Ratios of emissions were acquired at 0.5 Hz. ΔR/R0 was determined as the fraction of the increase of a given ratio over baseline ratio, divided by baseline ratio. For stimulation of cells with UVB, where fura-2 was not suitable because of the proximity of stimulation with 340/380 nm and 295 nm, 2 μM fluo4-AM was used instead. Ca++ imaging was carried out at 488 nm excitation, acquisition of emissions at 0.5 Hz, expressed as ΔF/F0. […]

T1 sequence (Q9EPK8 whole entry): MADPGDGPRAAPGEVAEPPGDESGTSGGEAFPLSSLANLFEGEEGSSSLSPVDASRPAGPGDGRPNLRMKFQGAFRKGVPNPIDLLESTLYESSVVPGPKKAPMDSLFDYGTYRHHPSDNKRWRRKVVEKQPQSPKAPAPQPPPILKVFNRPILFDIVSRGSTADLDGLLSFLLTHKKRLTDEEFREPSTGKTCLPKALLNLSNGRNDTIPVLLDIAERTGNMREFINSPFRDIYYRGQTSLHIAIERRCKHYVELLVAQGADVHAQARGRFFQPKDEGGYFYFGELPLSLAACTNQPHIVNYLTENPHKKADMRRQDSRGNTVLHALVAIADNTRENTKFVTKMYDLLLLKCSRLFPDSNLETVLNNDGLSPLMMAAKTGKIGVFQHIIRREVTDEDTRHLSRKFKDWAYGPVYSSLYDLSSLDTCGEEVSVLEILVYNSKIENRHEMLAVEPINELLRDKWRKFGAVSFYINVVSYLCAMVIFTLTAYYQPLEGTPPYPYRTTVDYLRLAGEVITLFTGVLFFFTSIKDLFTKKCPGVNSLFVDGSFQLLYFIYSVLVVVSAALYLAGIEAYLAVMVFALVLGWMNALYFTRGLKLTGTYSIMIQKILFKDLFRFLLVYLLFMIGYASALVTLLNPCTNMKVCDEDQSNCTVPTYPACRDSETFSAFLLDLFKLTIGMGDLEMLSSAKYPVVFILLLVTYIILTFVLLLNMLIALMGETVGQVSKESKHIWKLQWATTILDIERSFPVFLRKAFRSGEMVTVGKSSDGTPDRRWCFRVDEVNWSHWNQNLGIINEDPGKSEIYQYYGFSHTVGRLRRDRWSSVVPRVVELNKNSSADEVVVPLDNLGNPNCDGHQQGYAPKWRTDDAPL

Molecule	UVB-evoked Ca++ signaling [1]	ET1 immunoreactivity in UVB-exposed 1° MK (ET1 expression in 1° MK)	ET1 secretion by non-stimulated 1° MK (ET1 secretion by 1° MK)	further results
C=C(C)CCO[P@@](=O)(O)OP(=O)(O)O [IPP, isopentenyl pyrophosphate]	no effect; also recorded: not inhibited			
CCCC[C@@H](NC(=O)[C@@H](Cc1cn(C(=O)OC)c2ccccc12)NC(=O)[C@H](CC(C)(C)C)NC(=O)N1[C@H](C)CCC[C@@H]1C)C(=O)O [BQ788]				ET1-augmented UVB-evoked Ca++ signaling [1]: attenuated
CC(C)NCCN(C(C)C)S(=O)(=O)c1ccc(Cl)cc1Cl [RN1734]		diminished; also recorded: significant down-regulation	significant down-regulation	
COc1ccc2c(c1)CC[C@@H]1[C@@H]2CC[C@]2(C)[C@@H](NCCCCCCN3C(=O)C=CC3=O)CC[C@@H]12 [Compound U73122]	virtually eliminated; also recorded: strongly reduced	dampened; also recorded: significant down-regulation	down-regulation of ET1 secretion	
CC(C)C[C@@H]1NC(=O)[C@@H](C(C)C)NC(=O)[C@@H]2CCCN2C(=O)[C@@H](CC(=O)O)NC(=O)[C@@H](Cc2c[nH]c3ccccc23)NC1=O [BQ123] (cyclo(L[dW][dD]P[dV]))				ET1-augmented UVB-evoked Ca++ signaling [1]: attenuated
O=C(O)C(Cc1ccc2c(c1)oc1ccccc12)NCP(=O)(O)O (centres unmarked) [CGS35066]	significantly diminished; also recorded: significant attenuation	significant down-regulation	down-regulation of ET1 secretion	
endothelin-1 [ET1]	significant increase; also recorded: augmentation			GSK101-evoked Ca++ signaling on co-exposure to ET1 (TRPV4 [2]): augmented; also recorded: increase in signal; 4α-PDD-evoked Ca++ response (TRPV4 [3]): significant increase
